Two molecules from patent publication US9271978B2 (Zenith Epigenetics Corp., priority 2012, dated 2016) can be followed below.

The subject of one experiment is IL-6 and IL-17 cytokines. Put plainly: In vivo efficacy in mouse endotoxemia model. As to conditions: C57/B16 mice, oral 75 mg/kg, inhibition in IL-6 and IL-17 post 4-h LPS challenge 0.5 mg/kg i.p. As to the method: Sub lethal doses of Endotoxin (E. Coli bacterial lipopolysaccharide) were administered to animals to produce a generalized inflammatory response which was monitored by increases in secreted cytokines. Compounds were administered to C57/B16 mice orally at 75 mg/kg dose to evaluate inhibition in IL-6 and IL-17 cytokines post 4-h challenge with lipopolysaccharide (LPS) at 0.5 mg/kg dose intraperitoneally.

The subject of experiment [1] is Rat collagen-induced arthritis. Put plainly: In vivo efficacy in rat collagen-induced arthritis. As to conditions: female Lewis rats, dosed Day 11 to Day 17. As to the method: Rat collagen-induced arthritis is an experimental model of polyarthritis that has been widely used for preclinical testing of numerous anti-arthritic agents. Following administration of collagen, this model establishes a measurable polyarticular inflammation, marked cartilage destruction in association with pannus formation and mild to moderate bone resorption and periosteal bone proliferation. In this model, collagen was administered to female Lewis strain of rats on Day 1 and 7 of study and dosed with compounds from Day 11 to Day 17. Test compounds were evaluated to assess the potential to inhibit the inflammation (including paw swelling), cartilage destruction and bone resorption in arthritic rats, using a model in which the treatment is administered after the disease has been established.

Regarding `Cc1noc(C)c1-c1ccc(=O)n(Cc2ccccc2)c1` [Example 56, 1-Benzyl-5-(3,5-dimethylisoxazol-4-yl)pyridin-2(1H)-one], the In vivo activity entry with IL-6 and IL-17 cytokines is listed as “Active”.

On to `Cc1noc(C)c1-c1ccc(=O)n(Cc2ccc(Cl)cc2)c1` [Example 128, 1-(4-Chlorobenzyl)-5-(3,5-dimethylisoxazol-4-yl)pyridin-2(1H)-one], for which the In vivo activity result in experiment [1] is recorded as “Active”; in the experiment with IL-6 and IL-17 cytokines it was “Active”.
